Test results published in ChEMBL document CHEMBL3991601, “The target landscape of clinical kinase drugs” (Science, 2017).
Active and inactive are the calls of the source.

Target: T1, MAP/microtubule affinity-regulating kinase 4 (Homo sapiens, UniProt Q96L34)
T1 sequence (Q96L34 whole entry): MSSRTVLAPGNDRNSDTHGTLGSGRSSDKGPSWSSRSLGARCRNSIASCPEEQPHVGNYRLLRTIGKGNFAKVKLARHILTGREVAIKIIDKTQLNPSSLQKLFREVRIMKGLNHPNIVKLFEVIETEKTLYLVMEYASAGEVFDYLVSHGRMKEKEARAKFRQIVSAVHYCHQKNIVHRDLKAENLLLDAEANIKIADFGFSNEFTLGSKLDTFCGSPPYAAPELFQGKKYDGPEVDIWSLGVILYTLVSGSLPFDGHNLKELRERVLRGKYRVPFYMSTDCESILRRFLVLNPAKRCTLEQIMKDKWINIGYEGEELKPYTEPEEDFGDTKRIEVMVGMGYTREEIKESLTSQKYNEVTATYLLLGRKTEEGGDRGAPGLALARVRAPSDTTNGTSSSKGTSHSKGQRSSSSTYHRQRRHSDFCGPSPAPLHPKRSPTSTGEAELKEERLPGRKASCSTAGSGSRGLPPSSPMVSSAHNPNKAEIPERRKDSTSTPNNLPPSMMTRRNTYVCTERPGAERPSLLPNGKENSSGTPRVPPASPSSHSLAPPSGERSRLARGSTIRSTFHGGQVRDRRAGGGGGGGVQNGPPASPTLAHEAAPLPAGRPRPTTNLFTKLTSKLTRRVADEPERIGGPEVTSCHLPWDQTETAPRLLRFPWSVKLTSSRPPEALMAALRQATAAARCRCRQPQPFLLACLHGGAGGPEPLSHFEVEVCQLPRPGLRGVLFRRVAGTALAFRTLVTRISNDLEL
Further: in the data inactive means no Kd found up to 30 µM.

Row | Compound | Kd
1 | CCc1cnn2c(NCc3ccc[n+]([O-])c3)cc(N3CCCC[C@H]3CCO)nc12 [DINACICLIB] | > 30 µM (inactive)
2 | Cc1cc(Nc2cc(N3CCN(C)CC3)nc(/C=C/c3ccccc3)n2)n[nH]1 [ENMD-2076] | > 30 µM (inactive)
3 | COCCNCc1ccc(-c2cc3nccc(Oc4ccc(NC(=S)NC(=O)Cc5ccc(F)cc5)cc4F)c3s2)nc1 [GLESATINIB] | > 30 µM (inactive)
4 | COC(=O)[C@@]1(O)C[C@H]2O[C@]1(C)n1c3ccccc3c3c4c(c5c6ccccc6n2c5c31)C(=O)NC4 [K-252A] | 0.028 µM (active)
5 | Cc1c(F)cc(C(=O)NC2CC2)cc1-c1ccc(C(=O)NCC(C)(C)C)cn1 [LOSMAPIMOD] | > 30 µM (inactive)
6 | O=C(O)[C@]1(Cc2cccc(Nc3nccs3)n2)CC[C@@H](Oc2cccc(Cl)c2F)CC1 [MK-5108] | > 30 µM (inactive)

Target: T2, Dual specificity mitogen-activated protein kinase kinase 6 (Homo sapiens, UniProt P52564)
T2 sequence (P52564 whole entry): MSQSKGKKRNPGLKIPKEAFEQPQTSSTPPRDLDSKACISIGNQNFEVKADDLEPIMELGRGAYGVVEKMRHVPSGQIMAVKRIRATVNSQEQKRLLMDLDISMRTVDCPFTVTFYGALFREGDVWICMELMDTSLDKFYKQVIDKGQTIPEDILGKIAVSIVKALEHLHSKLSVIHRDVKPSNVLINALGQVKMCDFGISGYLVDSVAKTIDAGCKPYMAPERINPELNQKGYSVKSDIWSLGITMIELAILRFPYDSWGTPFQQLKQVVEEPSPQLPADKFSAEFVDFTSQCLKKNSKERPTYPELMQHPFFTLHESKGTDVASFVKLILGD

Row | Compound | Kd
7 | CCc1cnn2c(NCc3ccc[n+]([O-])c3)cc(N3CCCC[C@H]3CCO)nc12 [DINACICLIB] | > 30 µM (inactive)
8 | Cc1cc(Nc2cc(N3CCN(C)CC3)nc(/C=C/c3ccccc3)n2)n[nH]1 [ENMD-2076] | > 30 µM (inactive)
9 | COCCNCc1ccc(-c2cc3nccc(Oc4ccc(NC(=S)NC(=O)Cc5ccc(F)cc5)cc4F)c3s2)nc1 [GLESATINIB] | > 30 µM (inactive)
10 | Cc1c(F)cc(C(=O)NC2CC2)cc1-c1ccc(C(=O)NCC(C)(C)C)cn1 [LOSMAPIMOD] | > 30 µM (inactive)
11 | O=C(O)[C@]1(Cc2cccc(Nc3nccs3)n2)CC[C@@H](Oc2cccc(Cl)c2F)CC1 [MK-5108] | > 30 µM (inactive)

Target: Macrophage-stimulating protein receptor (Homo sapiens, UniProt Q04912)
Sequence (Q04912 25-304 limits assumed): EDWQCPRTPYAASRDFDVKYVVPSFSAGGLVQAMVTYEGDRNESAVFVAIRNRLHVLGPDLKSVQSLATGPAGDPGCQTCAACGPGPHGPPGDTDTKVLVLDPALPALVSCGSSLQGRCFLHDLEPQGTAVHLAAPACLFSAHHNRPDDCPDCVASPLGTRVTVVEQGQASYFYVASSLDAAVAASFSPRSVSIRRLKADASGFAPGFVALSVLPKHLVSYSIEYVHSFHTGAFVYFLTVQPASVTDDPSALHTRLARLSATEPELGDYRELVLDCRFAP
Sequence (Q04912 310-1400 limits assumed): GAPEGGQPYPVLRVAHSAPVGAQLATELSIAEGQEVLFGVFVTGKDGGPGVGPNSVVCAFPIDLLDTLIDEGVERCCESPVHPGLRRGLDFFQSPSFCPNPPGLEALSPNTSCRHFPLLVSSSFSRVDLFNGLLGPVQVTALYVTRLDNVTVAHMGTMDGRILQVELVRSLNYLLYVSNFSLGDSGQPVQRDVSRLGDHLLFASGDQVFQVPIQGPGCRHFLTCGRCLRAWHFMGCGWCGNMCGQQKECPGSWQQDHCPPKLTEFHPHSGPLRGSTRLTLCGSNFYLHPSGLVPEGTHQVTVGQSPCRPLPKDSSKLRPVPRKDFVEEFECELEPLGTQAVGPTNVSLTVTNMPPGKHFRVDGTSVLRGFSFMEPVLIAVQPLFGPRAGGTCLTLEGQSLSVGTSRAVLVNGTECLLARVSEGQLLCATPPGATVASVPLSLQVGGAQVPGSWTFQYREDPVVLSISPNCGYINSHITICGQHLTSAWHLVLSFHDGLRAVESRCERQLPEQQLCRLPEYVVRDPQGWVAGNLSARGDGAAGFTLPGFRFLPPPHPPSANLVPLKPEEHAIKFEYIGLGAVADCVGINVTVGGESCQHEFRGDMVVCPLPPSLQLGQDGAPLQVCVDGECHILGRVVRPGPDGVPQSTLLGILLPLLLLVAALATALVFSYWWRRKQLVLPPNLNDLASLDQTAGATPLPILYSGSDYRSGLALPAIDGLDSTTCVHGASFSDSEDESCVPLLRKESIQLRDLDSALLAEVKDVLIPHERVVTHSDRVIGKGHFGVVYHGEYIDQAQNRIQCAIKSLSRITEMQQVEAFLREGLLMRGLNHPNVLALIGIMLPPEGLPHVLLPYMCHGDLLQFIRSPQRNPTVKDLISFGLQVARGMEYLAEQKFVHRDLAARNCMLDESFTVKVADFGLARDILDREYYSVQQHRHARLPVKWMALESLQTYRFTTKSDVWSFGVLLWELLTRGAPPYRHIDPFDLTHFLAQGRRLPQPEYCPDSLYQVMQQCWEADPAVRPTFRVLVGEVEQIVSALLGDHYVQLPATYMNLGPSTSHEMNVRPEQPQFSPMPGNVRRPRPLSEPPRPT

Row | Compound | Kd
12 | COCCNCc1ccc(-c2cc3nccc(Oc4ccc(NC(=S)NC(=O)Cc5ccc(F)cc5)cc4F)c3s2)nc1 [GLESATINIB] | 2.32 µM (active)
13 | COC(=O)[C@@]1(O)C[C@H]2O[C@]1(C)n1c3ccccc3c3c4c(c5c6ccccc6n2c5c31)C(=O)NC4 [K-252A] | > 30 µM (inactive)
14 | Cc1c(F)cc(C(=O)NC2CC2)cc1-c1ccc(C(=O)NCC(C)(C)C)cn1 [LOSMAPIMOD] | > 30 µM (inactive)
15 | O=C(O)[C@]1(Cc2cccc(Nc3nccs3)n2)CC[C@@H](Oc2cccc(Cl)c2F)CC1 [MK-5108] | > 30 µM (inactive)

Target: T3, Ras-related protein Rab-10 (Homo sapiens, UniProt P61026)
T3 sequence (P61026 whole entry): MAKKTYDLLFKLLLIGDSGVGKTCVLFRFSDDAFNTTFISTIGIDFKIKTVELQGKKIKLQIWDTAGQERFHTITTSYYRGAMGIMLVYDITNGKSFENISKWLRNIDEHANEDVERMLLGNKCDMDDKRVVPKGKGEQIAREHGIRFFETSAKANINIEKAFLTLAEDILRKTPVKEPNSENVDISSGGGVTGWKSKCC

Row | Compound | Kd
16 | CCc1cnn2c(NCc3ccc[n+]([O-])c3)cc(N3CCCC[C@H]3CCO)nc12 [DINACICLIB] | > 30 µM (inactive)
17 | Cc1cc(Nc2cc(N3CCN(C)CC3)nc(/C=C/c3ccccc3)n2)n[nH]1 [ENMD-2076] | > 30 µM (inactive)
18 | COCCNCc1ccc(-c2cc3nccc(Oc4ccc(NC(=S)NC(=O)Cc5ccc(F)cc5)cc4F)c3s2)nc1 [GLESATINIB] | > 30 µM (inactive)
19 | COC(=O)[C@@]1(O)C[C@H]2O[C@]1(C)n1c3ccccc3c3c4c(c5c6ccccc6n2c5c31)C(=O)NC4 [K-252A] | > 30 µM (inactive)
20 | Cc1c(F)cc(C(=O)NC2CC2)cc1-c1ccc(C(=O)NCC(C)(C)C)cn1 [LOSMAPIMOD] | > 30 µM (inactive)
21 | O=C(O)[C@]1(Cc2cccc(Nc3nccs3)n2)CC[C@@H](Oc2cccc(Cl)c2F)CC1 [MK-5108] | > 30 µM (inactive)

Target: T4, Peroxisomal acyl-coenzyme A oxidase 1 (Homo sapiens, UniProt Q15067)
T4 sequence (Q15067 whole entry): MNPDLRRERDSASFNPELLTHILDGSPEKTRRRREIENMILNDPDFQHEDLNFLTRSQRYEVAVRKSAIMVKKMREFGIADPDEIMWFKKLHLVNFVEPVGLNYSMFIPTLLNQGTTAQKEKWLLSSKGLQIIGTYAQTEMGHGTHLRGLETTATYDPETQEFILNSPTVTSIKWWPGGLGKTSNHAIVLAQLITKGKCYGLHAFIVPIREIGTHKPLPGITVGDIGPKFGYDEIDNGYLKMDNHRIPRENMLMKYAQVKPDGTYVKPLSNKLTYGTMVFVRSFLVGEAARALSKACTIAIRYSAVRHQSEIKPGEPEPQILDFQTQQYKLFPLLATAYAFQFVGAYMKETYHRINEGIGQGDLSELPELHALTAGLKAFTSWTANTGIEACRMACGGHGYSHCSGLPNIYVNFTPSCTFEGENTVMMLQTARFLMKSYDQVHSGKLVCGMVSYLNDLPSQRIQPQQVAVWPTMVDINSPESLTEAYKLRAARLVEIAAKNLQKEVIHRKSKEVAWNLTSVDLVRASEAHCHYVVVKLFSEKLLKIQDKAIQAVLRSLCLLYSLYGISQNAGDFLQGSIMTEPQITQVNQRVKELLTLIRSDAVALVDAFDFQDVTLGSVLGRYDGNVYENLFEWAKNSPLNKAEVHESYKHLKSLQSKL

Row | Compound | Kd
22 | CCc1cnn2c(NCc3ccc[n+]([O-])c3)cc(N3CCCC[C@H]3CCO)nc12 [DINACICLIB] | > 30 µM (inactive)
23 | Cc1cc(Nc2cc(N3CCN(C)CC3)nc(/C=C/c3ccccc3)n2)n[nH]1 [ENMD-2076] | > 30 µM (inactive)
24 | COC(=O)[C@@]1(O)C[C@H]2O[C@]1(C)n1c3ccccc3c3c4c(c5c6ccccc6n2c5c31)C(=O)NC4 [K-252A] | > 30 µM (inactive)

Target: T5, Dual specificity mitogen-activated protein kinase kinase 3 (Homo sapiens, UniProt P46734)
T5 sequence (P46734 whole entry): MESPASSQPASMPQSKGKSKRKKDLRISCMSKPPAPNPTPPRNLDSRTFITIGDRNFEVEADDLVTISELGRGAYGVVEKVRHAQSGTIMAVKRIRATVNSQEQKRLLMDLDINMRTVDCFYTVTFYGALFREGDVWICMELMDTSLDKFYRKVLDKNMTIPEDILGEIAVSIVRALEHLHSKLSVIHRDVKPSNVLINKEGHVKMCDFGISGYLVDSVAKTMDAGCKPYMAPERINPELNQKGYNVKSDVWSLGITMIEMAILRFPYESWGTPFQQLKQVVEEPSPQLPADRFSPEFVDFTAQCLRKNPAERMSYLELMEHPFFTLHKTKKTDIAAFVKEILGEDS

Row | Compound | Kd
25 | CCc1cnn2c(NCc3ccc[n+]([O-])c3)cc(N3CCCC[C@H]3CCO)nc12 [DINACICLIB] | > 30 µM (inactive)
26 | Cc1cc(Nc2cc(N3CCN(C)CC3)nc(/C=C/c3ccccc3)n2)n[nH]1 [ENMD-2076] | > 30 µM (inactive)
27 | COCCNCc1ccc(-c2cc3nccc(Oc4ccc(NC(=S)NC(=O)Cc5ccc(F)cc5)cc4F)c3s2)nc1 [GLESATINIB] | > 30 µM (inactive)
28 | COC(=O)[C@@]1(O)C[C@H]2O[C@]1(C)n1c3ccccc3c3c4c(c5c6ccccc6n2c5c31)C(=O)NC4 [K-252A] | > 30 µM (inactive)
29 | Cc1c(F)cc(C(=O)NC2CC2)cc1-c1ccc(C(=O)NCC(C)(C)C)cn1 [LOSMAPIMOD] | > 30 µM (inactive)
30 | O=C(O)[C@]1(Cc2cccc(Nc3nccs3)n2)CC[C@@H](Oc2cccc(Cl)c2F)CC1 [MK-5108] | > 30 µM (inactive)

Target: MAP/microtubule affinity-regulating kinase 3 (Homo sapiens, UniProt P27448)
Sequence (P27448 whole entry): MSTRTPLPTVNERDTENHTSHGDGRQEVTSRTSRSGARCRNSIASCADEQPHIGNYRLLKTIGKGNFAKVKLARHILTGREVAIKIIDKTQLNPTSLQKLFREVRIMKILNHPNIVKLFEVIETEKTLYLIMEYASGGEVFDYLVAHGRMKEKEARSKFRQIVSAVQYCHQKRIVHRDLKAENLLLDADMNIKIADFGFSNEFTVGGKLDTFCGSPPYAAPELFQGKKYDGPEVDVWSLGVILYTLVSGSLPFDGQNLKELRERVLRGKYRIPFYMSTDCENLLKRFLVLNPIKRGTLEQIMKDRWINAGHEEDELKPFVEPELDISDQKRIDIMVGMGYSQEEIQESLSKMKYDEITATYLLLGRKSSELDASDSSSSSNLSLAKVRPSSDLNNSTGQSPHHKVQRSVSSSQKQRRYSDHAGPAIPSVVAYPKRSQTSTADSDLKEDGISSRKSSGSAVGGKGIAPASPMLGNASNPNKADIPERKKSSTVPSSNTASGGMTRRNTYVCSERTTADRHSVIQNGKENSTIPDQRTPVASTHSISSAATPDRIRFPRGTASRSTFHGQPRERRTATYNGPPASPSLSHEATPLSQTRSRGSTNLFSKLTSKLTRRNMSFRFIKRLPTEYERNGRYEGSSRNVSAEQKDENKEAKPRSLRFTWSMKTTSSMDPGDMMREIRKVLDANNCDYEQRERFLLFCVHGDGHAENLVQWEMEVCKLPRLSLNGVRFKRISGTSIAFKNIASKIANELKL

Row | Compound | Kd
31 | CCc1cnn2c(NCc3ccc[n+]([O-])c3)cc(N3CCCC[C@H]3CCO)nc12 [DINACICLIB] | > 30 µM (inactive)
32 | COCCNCc1ccc(-c2cc3nccc(Oc4ccc(NC(=S)NC(=O)Cc5ccc(F)cc5)cc4F)c3s2)nc1 [GLESATINIB] | > 30 µM (inactive)
33 | COC(=O)[C@@]1(O)C[C@H]2O[C@]1(C)n1c3ccccc3c3c4c(c5c6ccccc6n2c5c31)C(=O)NC4 [K-252A] | 0.384 µM (active)
34 | Cc1c(F)cc(C(=O)NC2CC2)cc1-c1ccc(C(=O)NCC(C)(C)C)cn1 [LOSMAPIMOD] | > 30 µM (inactive)
35 | O=C(O)[C@]1(Cc2cccc(Nc3nccs3)n2)CC[C@@H](Oc2cccc(Cl)c2F)CC1 [MK-5108] | > 30 µM (inactive)
